The values below come from the Deep4Chem optical property database.

The data set is described as follows: solvent given as SMILES.

As to `COc1nc(Nc2ccc3c4c(cccc24)C(=O)c2ccccc2-3)nc(OC)n1`, the absorption maximum runs as follows: (in CC#N) 413.91 nm; (in CC(C)O) 421.94 nm; (in CCCCOCCCC) 421.94 nm; (in CCOC(C)=O) 418.94 nm; (in CO) 419.99 nm; (in Cc1ccccc1) 426.99 nm.
Take `c1ccc(-c2nc(-c3ccccc3)nc(-c3ccc(-c4ccc5c(c4)C4(c6ccccc6-c6ccccc64)c4ccccc4N5c4ccccc4)cc3)n2)cc1`: the absorption maximum (in c1cc(-c2cccc(-n3c4ccccc4c4ccccc43)c2)cc(-n2c3ccccc3c3ccccc32)c1) was found to be 387.78 nm.
With `CCCCCCCCCCCCOc1cc2c3c(ccc4c5c(SCCCCCCCCCCCC)cc6c7c(ccc(c1c34)c75)C(=O)N(C1CCCCC1)C6=O)C(=O)N(C1CCCCC1)C2=O`, the absorption maximum (in ClC(Cl)Cl) is listed as 568 nm.
The compound `CCn1c2cc(-c3ccc(-c4cccs4)s3)ccc2c2ccc(-c3ccc(-c4cccs4)s3)cc21` yielded an absorption maximum (in ClCCl) of 399 nm.
`CCCCCC(=O)Oc1cc2[nH]c(cc2CCOC)c2nc(ccc3[nH]c(cc3CCOC)c3nc1C(CCOC)=C3)C(CCOC)=C2` came in with an absorption maximum (in Cc1ccccc1) of 646 nm.
On to `CC1=C(c2ccccc2)C(C)=[N+]2C1=C(c1c(-c3ccccn3)nc3ccccn13)c1c(C)c(-c3ccccc3)c(C)n1[B-]2(F)F`, for which the absorption maximum (in ClCCl) stood at 548 nm.
For the compound `CN1C(=CC2=C([O-])C(=Cc3oc4ccccc4[n+]3C)C2=C(C#N)C#N)C(C)(C)c2ccccc21`, for the setting “in ClC(Cl)Cl”, the absorption maximum amounted to 655 nm.
Under “in ClCCl”, `C(#Cc1nc(C#Cc2ccccc2)c(C#Cc2ccccc2)c(C#Cc2ccccc2)c1C#Cc1ccccc1)c1ccccc1` registered an absorption maximum of 421 nm.
In the case of `c1ccc(-c2nn(-c3ccccc3)c3nc4ccc(-n5c6ccccc6c6ccccc65)cc4cc23)cc1`, the absorption maximum was determined as 419.11 nm (in C1CCCCC1); 414.94 nm (in C1CCOC1); 411.02 nm (in CC#N); 412.03 nm (in CC(C)=O); 415.97 nm (in CCCCCl); 418.06 nm (in CCCCOCCCC). Where the note is “in CN(C)C=O”, this compound came in with an absorption maximum of 414.94 nm.
On to `CCCCN(CCCC)c1ccc(C#Cc2cc(C#Cc3cc(C(F)(F)F)cc(C(F)(F)F)c3)c(C#Cc3cc(C(F)(F)F)cc(C(F)(F)F)c3)cc2C#Cc2ccc(N(CCCC)CCCC)cc2)cc1`, for which the absorption maximum (in ClCCl) was determined as 410 nm.
Same read-out and setting: next, `CCCCCCOc1ccc2c(c1)-c1cc3c(cc1[Si]2(C)C)-c1ccccc1[Si]3(C)C`: 327 nm.
`CCC12C(=C3C(=C4c5ccc(-c6ccc(C(C)=O)s6)cc5S(=O)(=O)C41CC)C(F)(F)C(F)(F)C3(F)F)c1ccc(-c3ccc(C(C)=O)s3)cc1S2(=O)=O` (stereo not given): under “in C1COCCO1”, the absorption maximum was determined as 485 nm.
Regarding `FC(F)(F)c1ccc(/C=C/c2nc(/C=C/c3ccc(N(c4ccccc4)c4ccccc4)cc3)cc(/C=C/c3ccc(N(c4ccccc4)c4ccccc4)cc3)n2)cc1`, the absorption maximum (in ClCCl) stood at 430 nm.
Where the note is “in CC1CCCO1”, `CC1=CC(/C=C/c2ccc(C)cc2)=[N+]2C1=C(c1ccccc1)c1c(C)cc(/C=C/c3ccc(C)cc3)n1[B-]2(F)F` showed an absorption maximum of 631 nm.
For `O=C1OC(c2ccccc2)=N/C1=C\c1ccc(N(c2ccc(/C=C3\N=C(c4ccccc4)OC3=O)cc2)c2ccc(/C=C3/N=C(c4ccccc4)OC3=O)cc2)cc1`, the absorption maximum runs as follows: (in C1CCCCC1) 497.5 nm; (in C1CCOC1) 500 nm; (in C1COCCO1) 502 nm; (in CC1CCCCC1) 498.5 nm; (in CC#N) 498 nm; (in CC(C)=O) 499 nm. Further, the absorption maximum reads like this: (in CC(C)CC(C)(C)C) 492 nm; (in CCCCC) 489 nm; (in CCCCCC) 491 nm; (in CCCCCCC) 495 nm; (in CCCCOCCCC) 497.5 nm; (in CCOC(C)=O) 496 nm. The absorption maximum came out at 496.5 nm (in CCOCC); 504 nm (in CN(C)C=O); 506 nm (in CS(C)=O); 505.5 nm (in Cc1ccccc1); 509.5 nm (in ClC(Cl)Cl).
Regarding `CS1(C)C(/C=C/C2=C(c3ccc(C(=O)O)cc3)C(=C/C=C3/N(CCCCS(=O)(=O)[O-])c4ccccc4S3(C)C)/CCC2)=[N+](CCCCS(=O)(=O)[O-])c2ccccc21`, the absorption maximum (in CO) amounted to 800 nm.
The compound `CCB1c2ccccc2Nc2ccccc21` registered an absorption maximum (in ClCCl) of 381 nm.
`CCCCn1c(-c2ccc(-c3ccc(-c4ccc(-c5n(CCCC)c6ccccc6[n+]5CCCC)cc4)cc3)cc2)[n+](CCCC)c2ccccc21` yielded an absorption maximum (in O) of 303 nm.
The compound `COc1cc2c(cc1-c1ccc(C)cc1)Cc1c3c(c4c(c1-2)-c1cc(OC)c(-c2ccc(C)cc2)cc1C4)C(=O)N(CCC(C)C)C3=O` gave an absorption maximum (in C1CCOC1) of 411 nm.
For the compound `CCC1(CC)c2ccccc2-c2c1c1c(c3c2C(CC)(CC)c2cc(-c4cccs4)ccc2-3)C(CC)(CC)c2cc(N(c3ccccc3)c3ccccc3)ccc2-1`, where the note is “in C1CCOC1”, the absorption maximum amounted to 355 nm.
Where the note is “in CCO”, `CN1C(=CC2=C([O-])C(=O)C2=C(C#N)C#N)Sc2ccccc21` showed an absorption maximum of 481 nm.
Regarding `CCC1=C(C)C(=O)n2c1cc1c(CCC(=O)O)c(C)c(C)n1c2=O`, the absorption maximum is on record as 416 nm (in CC#N); 415 nm (in CC(C)=O); 421 nm (in CO); 421 nm (in CS(C)=O); 423 nm (in ClC(Cl)Cl); 419 nm (in c1ccccc1).
For the compound `C[N+]1=C(/C=C/C2=C3Oc4c(cc5c6c4CCCN6CCC5)C(c4ccccc4C(=O)O)=C3CCC2)C(C)(C)c2ccccc21`, the absorption maximum is, setting by setting: (in CC#N) 724 nm; (in CCO) 710 nm; (in CO) 714 nm; (in ClC(Cl)Cl) 730 nm.
In the case of `COc1ccc2c(CC(=O)NN)coc2c1`, the absorption maximum reads like this: (in C1CCOC1) 290 nm; (in CC#N) 290 nm; (in CC(C)=O) 298 nm; (in CCCCO) 278 nm; (in CCCO) 289 nm; (in CCO) 291 nm. Further, the absorption maximum by setting is: (in CCOC(C)=O) 300 nm; (in CN(C)C=O) 288 nm; (in CO) 290 nm; (in ClCCl) 287 nm.
For the compound `CC(C)[Si](C#Cc1c2nc3ccccc3nc2c(C#C[Si](C(C)C)(C(C)C)C(C)C)c2nc3ccccc3nc12)(C(C)C)C(C)C`, where the note is “in CCCCCC”, the absorption maximum turned out to be 681 nm.
For the compound `O=C1c2ccccc2C2=Cc3cc4c(cc3B(O)N12)OCO4`, the absorption maximum reads like this: (in CC#N) 392 nm; (in CO) 394 nm; (in CS(C)=O) 396 nm; (in ClC(Cl)Cl) 397 nm.
Take `Fc1ccccc1-c1nc2sc3ccccc3c2s1`: the absorption maximum (in CS(C)=O) was found to be 344 nm.
Consider `CCCCCn1c2ccc(S(=O)(=O)Cl)cc2c(=O)c2cc(S(=O)(=O)Cl)ccc21`, for which the absorption maximum (in CS(C)=O) is on record as 406 nm.
For the compound `CC(C)[Si](C#Cc1c2nc3c(nc2c(C#C[Si](C(C)C)(C(C)C)C(C)C)c2nc4ccccc4nc12)C1c2ccccc2C3c2ccccc21)(C(C)C)C(C)C`, the absorption maximum (in CCCCCC) is given as 551 nm.
On to `CCCCCCCCCCn1nnc(-c2ccc(C#Cc3ccc(C#Cc4ccc(-c5nnn(CCCCCCCCCC)n5)cc4)c4nc5c6ccccc6c6ccccc6c5nc34)cc2)n1`, for which the absorption maximum reads like this: (in C1CCOC1) 428 nm; (in Cc1ccccc1) 428 nm; (in ClCCl) 428 nm.
For `c1ccc2[nH]c(-c3cc(-c4nc5ccccc5[nH]4)cc(-c4nc5ccccc5[nH]4)c3)nc2c1`, the absorption maximum (in CS(C)=O) is 316 nm.
On to `Cc1ccc(/C2=C3N=C(C(c4ccccc4)=C/3c3ccccc3)/C(c3ccc(C)cc3)=c3\[nH]/c(c(-c4ccccc4)c3-c3ccccc3)=C(/c3ccc(C)cc3)C3=N/C(=C(/c4ccc(C)cc4)c4[nH]c2c(-c2ccccc2)c4-c2ccccc2)C(c2ccccc2)=C3c2ccccc2)cc1`, for which, under “in ClCCl”, the absorption maximum was 721 nm.
Consider `CCOC(=O)/C(C#N)=C\c1ccc2c(c1)c1ccccc1n2-c1ccc(C)cc1`, for which the absorption maximum is, setting by setting: (in C1CCOC1) 390 nm; (in CC#N) 389 nm; (in CC(C)=O) 388 nm; (in CCOC(C)=O) 400 nm; (in CO) 391 nm; (in CS(C)=O) 397 nm. Further, the absorption maximum runs as follows: (in Cc1ccccc1) 396 nm; (in ClC(Cl)Cl) 389 nm.
Take `CCCCOc1cc(C=C2c3ccccc3-c3ccccc32)c(OCCCC)cc1C=C1c2ccccc2C=Cc2ccccc21`: the absorption maximum (in C1CCOC1) was 395 nm.
In turn, `O=[N+]([O-])c1ccc[nH]1` gave an absorption maximum (in CO) of 336 nm and an absorption maximum (in O) of 350 nm.
`C=CC1CN2CCC1CC2[C@@H](OCc1ccccc1)c1ccnc2ccc(O)cc12` (stereo not given in full) gave an absorption maximum (in C1CCOC1) of 338 nm; an absorption maximum (in CC#N) of 335 nm; an absorption maximum (in CCCC#N) of 337 nm; an absorption maximum (in Cc1ccccc1) of 335 nm; an absorption maximum (in ClCCl) of 334 nm.
As to `Clc1nc(Nc2ccccc2)nc(Nc2ccc3c4cccc5cccc(c6cccc2c63)c54)n1`, the absorption maximum runs as follows: (in C1COCCO1) 444 nm; (in CC#N) 442 nm; (in CCCCOCCCC) 443 nm; (in CCOC(C)=O) 442 nm.
For the compound `COc1ccc(C2=[N+]3C(=Nc4c(C)cc(-c5ccc(OC)cc5)n4[B-]3(F)F)C(C)=C2)cc1`, under “in CS(C)=O”, the absorption maximum is 656 nm.
For `N#Cc1c(-n2c3ccccc3c3cc(Br)ccc32)c(-n2c3ccccc3c3cc(Br)ccc32)c(C#N)c(-n2c3ccccc3c3cc(Br)ccc32)c1-n1c2ccccc2c2cc(Br)ccc21`, the absorption maximum (in Cc1ccccc1) was determined as 337 nm.
Under “in ClC(Cl)Cl”, `CC(C)(C)N1C(=O)c2c(cc3ccc4cccc5ccc2c3c45)C1O` (stereo not given) returned an absorption maximum of 385 nm.
For the setting “in ClCCl”, `CC(C)(C)c1ccc(-c2cc(-c3ccc(-c4cc(-c5ccc(C(C)(C)C)cc5)c(C(=O)NCc5ccccc5)s4)s3)sc2C(=O)NCc2ccccc2)cc1` showed an absorption maximum of 394 nm.
